BindingDB's records for doi:10.1016/j.bmcl.2008.04.069 (Bristol-Myers Squibb, 2008)

Target: T1, 11-beta-hydroxysteroid dehydrogenase 1 [23-292,A23S,F278E] (Homo sapiens, UniProt P28845, A23S/F278E)
T1 construct: 23-292
Experiment: Scintillation Proximity Assay (SPA)
Conditions: pH 6.5; 23 °C
Method: 11beta-HSD1 microsomes isolated from HEK 293 cells over-expressing human 11beta-HSD1 were incubated with the substrate cortisone and cofactor NADPH at room temperature. The reactions were terminated with the addition of a nonspecific 11beta-HSD1 inhibitor (18beta-glycyrrhetinic acid). The product cortisol was quantified in an immuno-competition SPA wherein the [3H]-cortisol bound to anti-rabbit antibody Yitrium silicate SPA beads coated with polyclonal anti-cortisol antibody was competed by cortisol produced in the reaction, and the reaction mixture was read in a scintillation plate reader (TopCount). The amount of cortisol was determined from a cortisol standard curve.

T1 sequence (P28845 as listed by the source A23S/F278E): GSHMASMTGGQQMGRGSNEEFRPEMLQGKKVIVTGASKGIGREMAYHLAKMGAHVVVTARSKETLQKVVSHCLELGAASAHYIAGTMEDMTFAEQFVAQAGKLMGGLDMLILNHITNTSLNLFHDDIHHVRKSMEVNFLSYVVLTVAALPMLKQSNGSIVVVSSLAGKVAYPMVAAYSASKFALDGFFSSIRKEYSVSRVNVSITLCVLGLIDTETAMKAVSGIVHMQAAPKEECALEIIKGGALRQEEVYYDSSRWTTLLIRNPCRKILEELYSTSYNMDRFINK

`O=C(c1cncc(CS(=O)(=O)c2c(Cl)cccc2Cl)c1)N1CCOCC1` [pyridine amide, 26] was tested. Which IC50 did it give?
The IC50 was > 10 µM.
